Patent publication US20020160932A1, “Uncompetitive inhibitors of helicase-primase” (priority 2000, published 2002)
Like-named read-outs stand apart in the source and are kept apart here.

How the values were obtained:
HSV-2 MS = test: in vivo lethal challenge model, HSV-2 MS; details: for ED50: Human alphaherpesvirus 2, in Mus musculus, po, 120 h, read-out: in vivo lethal challenge model HSV-2 MS ED50, p.o., mice, 3 times a day for 5 days, survival; for in vivo lethal challenge model HSV-2 MS ED50: p.o., mice, 3 times a day for 5 days, survival
Description: (§1) 6-week old female mice, strain BALB/cABom, were purchased from a commercial breeder (Bomholtgard Breeding and Research Centre Ltd).
(§2) The animals were anaesthetized with diethyl ether (Merck) in a sealed glass vessel. 50 μl of a dilution of the virus stock (dose for infection 5×10^4 Pfu) were introduced with an Eppendorf pippette into the nose of the anaesthetized animals. This dose leads to death of 90-100% of the animals due to a generalized infection with prominent respiratory and central nervous symptoms after on average between 5 and 8 days.
(§3) 6 hours after the infection, the animals were treated with doses of 0.1-100 mg/kg of body weight 3 times day at 7.00 h, 14.00 h and 19 h over a period of 5 days. The substances were dissolved in DMSO and resuspended in Tylose/PBS (Hoechst) (final concentration 1.5% DMSO, 0.5% Tylose in PBS).
(§4) After the last administration, the animals were observed further and the times of death were recorded.

[1] = tested on: Acyclovir-resistant HSV-1 (F) mutants; test: microbe, parasite or virus in culture; format: cell-based, herpes simplex virus 1
Wild-type HSV-1 (F) = test: in vitro viral replication assay, wild-type HSV-1 (F); format: cell-based, herpes simplex virus 1; details: for SI Wild-type HSV-1 (F): selectivity index SI=(CC50/IC50);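 on SI Wild-type HSV-1 (F): ratio of CC50 to antiviral IC50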
HSV-1 Walkie = test: in vivo lethal challenge model, HSV-1 Walki; details: for ED50: Human alphaherpesvirus 1, in Mus musculus, po, 120 h, read-out: in vivo lethal challenge model HSV-1 Walkie ED50; for in vivo lethal challenge model HSV-1 Walkie ED50: p.o., mice, 3 times a day for 5 days, survival
Description: as §1, §2, §3, §4

[2] = tested on: Active substance-resistant HSV-1 (F) mutants; test: microbe, parasite or virus in culture; details: Human alphaherpesvirus 1, read-out: IC50 Active substance-resistant HSV-1 (F) mutants
HSV-2 G = test: in vitro viral replication assay, human HSV-2 G; format: cell-based, herpes simplex virus 2; details: for IC50: in vitro viral replication assay; for SI human HSV-2 G: selectivity index SI=(CC50/IC50);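 on SI human HSV-2 G: ratio of CC50 to antiviral IC50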
BHV = test: in vitro viral replication assay, bovine BHV; format: cell-based; details: for IC50: in vitro viral replication assay; for SI bovine BHV: selectivity index SI=(CC50/IC50);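 on SI bovine BHV: ratio of CC50 to antiviral IC50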
[3] = tested on: clinical isolates (39 HSV-1 and 19 HSV-2 isolates); test: activity on clinical isolates; format: cell-based, herpes simplex virus; details: 39 HSV-1 and 19 HSV-2 isolates tested
PRV = test: cells; format: cell-based, porcine (PRV); details: for IC50: read-out: IC50 porcine PRV
[4] = tested on: Active substance-resistant HSV-1 (F) mutants; details: read-out: IC50 Active substance-resistant HSV-1 (F) mutants
[5] = molecular target: HSV-1 helicase-primase heterodimer enzyme complex (UL5-UL52-6xHis) (Human herpesvirus 1, UniProt P10189+P10236); test: HSV-1 DNA-dependent ATPase assay; details: for type of ATPase inhibition (mechanism): wild-type HSV-1 (F) helicase-primase
Excerpt: HSV-1 DNA-dependent ATPase assay (this in vitro assay permits testing for inhibition of the HSV-1 helicase-primase).
The HSV-1 helicase-primase heterodimer enzyme complex was [lacuna] with the aid of the recombinant baculovirus expression system in doubly infected Sf9 (Spodoptera frugiperda) cells. One recombinant baculovirus codes for the UL5 helicase gene and the second virus codes for the manipulated UL52-6×His primase gene.
The genes were amplified from the HSV-1 (F) genome by PCR (American Tissue Culture Collection ATCC VR-733) and cloned into the baculovirus (UL5→pFASTBAC1; UL52→pFASTHTb) as described in detail in the instruction manual for BAC-TO-BAC Baculovirus Expression Systems, Life-Technologies.
The purified heterodimeric helicase-primase complex (200 ng) was incubated with 1 μg of DNA (Sigma D3287 or D8681) in 20 mM HEPES (pH 7.6; 4-(2-hydroxyethyl)-1-piperazineethanesulphonic acid), 5 mM MgCl2, 0.2-5 mM ATP, 100 μg of BSA (bovine serum albumin) per ml, 10% glycerol, 1 mM DTT (DL-dithiothreitol) and, where appropriate, inhibitor in the appropriate concentration at 37° C. for 60 min.
The inhibition of the DNA-dependent ATPase activity was calculated from the change in the absorption in the presence and absence of inhibitor.
The Ki values were calculated with the assistance of the Sigma Plot software 4.0 and the method of nonlinear curve regression.
For this purpose, the ATPase activity of the helicase-primase heterodimer (detection through formation of inorganic phosphate (Pi)) was measured in the presence of saturated DNA concentrations and varying ATP and inhibitor concentrations, as explained in the ATPase assay section.

[6] = in vitro viral replication assay, read-out: IC50 Wild-type HSV-1 (F)

Sequence of HSV-1 helicase-primase heterodimer enzyme complex (UL5-UL52-6xHis) (P10236 whole entry): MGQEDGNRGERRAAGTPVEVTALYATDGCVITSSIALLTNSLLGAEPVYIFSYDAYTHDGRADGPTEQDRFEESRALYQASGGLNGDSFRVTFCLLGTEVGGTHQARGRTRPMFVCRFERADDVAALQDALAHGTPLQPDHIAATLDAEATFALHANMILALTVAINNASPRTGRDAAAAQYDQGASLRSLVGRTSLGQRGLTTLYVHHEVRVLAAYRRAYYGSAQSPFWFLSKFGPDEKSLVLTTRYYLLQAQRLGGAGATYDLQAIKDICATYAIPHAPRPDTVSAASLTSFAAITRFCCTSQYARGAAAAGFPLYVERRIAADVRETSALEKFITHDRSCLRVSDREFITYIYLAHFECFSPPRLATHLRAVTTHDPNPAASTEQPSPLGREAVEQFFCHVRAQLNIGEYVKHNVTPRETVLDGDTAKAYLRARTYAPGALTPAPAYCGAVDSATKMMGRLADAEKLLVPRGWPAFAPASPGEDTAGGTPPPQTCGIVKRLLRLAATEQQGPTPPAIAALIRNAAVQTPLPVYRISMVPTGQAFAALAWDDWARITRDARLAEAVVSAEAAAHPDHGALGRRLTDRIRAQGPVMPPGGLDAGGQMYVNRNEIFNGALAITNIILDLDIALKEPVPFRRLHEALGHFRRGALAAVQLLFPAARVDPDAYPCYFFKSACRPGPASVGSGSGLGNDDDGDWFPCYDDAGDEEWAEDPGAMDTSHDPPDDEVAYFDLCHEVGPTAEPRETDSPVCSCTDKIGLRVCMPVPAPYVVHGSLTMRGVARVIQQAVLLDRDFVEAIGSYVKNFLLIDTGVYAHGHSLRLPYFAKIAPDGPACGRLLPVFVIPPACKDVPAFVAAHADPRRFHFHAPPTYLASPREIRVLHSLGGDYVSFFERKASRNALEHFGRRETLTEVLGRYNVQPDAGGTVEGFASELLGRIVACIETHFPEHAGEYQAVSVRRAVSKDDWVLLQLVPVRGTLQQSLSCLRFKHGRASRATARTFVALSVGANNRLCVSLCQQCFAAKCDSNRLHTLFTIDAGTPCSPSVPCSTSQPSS
Sequence of HSV-1 helicase-primase heterodimer enzyme complex (UL5-UL52-6xHis) (P10189 whole entry): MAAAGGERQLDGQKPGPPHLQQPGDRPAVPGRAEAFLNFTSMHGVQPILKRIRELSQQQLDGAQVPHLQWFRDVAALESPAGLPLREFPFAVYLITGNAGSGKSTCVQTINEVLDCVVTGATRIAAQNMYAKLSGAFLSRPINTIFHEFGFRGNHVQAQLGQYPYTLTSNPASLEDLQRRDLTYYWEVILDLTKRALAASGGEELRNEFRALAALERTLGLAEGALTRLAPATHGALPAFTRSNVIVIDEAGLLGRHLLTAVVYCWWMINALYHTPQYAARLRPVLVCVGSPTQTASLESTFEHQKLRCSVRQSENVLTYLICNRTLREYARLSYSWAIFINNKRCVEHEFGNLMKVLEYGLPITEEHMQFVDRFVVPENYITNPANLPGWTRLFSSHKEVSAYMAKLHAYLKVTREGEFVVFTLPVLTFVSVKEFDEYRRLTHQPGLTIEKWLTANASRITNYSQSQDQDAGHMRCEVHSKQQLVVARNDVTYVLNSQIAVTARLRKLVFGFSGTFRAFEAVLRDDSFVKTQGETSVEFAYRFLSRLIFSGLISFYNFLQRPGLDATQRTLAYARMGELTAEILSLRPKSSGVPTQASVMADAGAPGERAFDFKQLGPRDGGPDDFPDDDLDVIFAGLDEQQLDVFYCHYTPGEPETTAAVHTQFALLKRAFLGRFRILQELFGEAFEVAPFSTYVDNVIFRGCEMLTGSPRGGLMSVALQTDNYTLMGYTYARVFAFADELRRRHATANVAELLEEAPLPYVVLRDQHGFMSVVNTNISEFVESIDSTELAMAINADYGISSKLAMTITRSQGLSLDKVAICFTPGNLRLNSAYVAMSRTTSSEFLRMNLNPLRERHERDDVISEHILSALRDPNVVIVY

Nc1nc2c(ncn2COCCO)c(=O)[nH]1 [Acyclovir, acyclovir, reference compound]
ED50 (HSV-2 MS): 16 mg/kg | IC50 ([1]; Human alphaherpesvirus 1, read-out: IC50 Acyclovir-resistant HSV-1 (F) mutants): 125000 nM | IC50 (Wild-type HSV-1 (F); Human alphaherpesvirus 1, in vitro viral replication assay, read-out: IC50 Wild-type HSV-1 (F)): 1000 nM | SI Wild-type HSV-1 (F) (Wild-type HSV-1 (F)): 250 | ED50 (HSV-1 Walkie): 22 mg/kg | IC50 [2]: 1000 nM | IC50 (HSV-2 G; Human alphaherpesvirus 2): 4000 nM | SI human HSV-2 G (HSV-2 G): 125

Cc1nc(N(C)C(=O)Cc2ccc(-c3ccccc3)cc2)sc1S(N)(=O)=O [Example 5]
in vivo lethal challenge model HSV-2 MS ED50 (HSV-2 MS): 1.1 mg/kg | IC50 (BHV): 50 nM | SI bovine BHV (BHV): 5000 | activity on clinical isolates [3]: active on all the clinical isolates tested to date | SI porcine PRV (PRV): 13 | IC50 (PRV): 8000 nM | in vivo lethal challenge model HSV-1 Walkie ED50 (HSV-1 Walkie): 0.5 mg/kg | IC50 (HSV-2 G): 5 nM | SI human HSV-2 G (HSV-2 G): 50000

CNS(=O)(=O)c1sc(N(C)C(=O)Nc2ccc(N3CCOCC3)cc2)nc1C [Example 2]
in vivo lethal challenge model HSV-2 MS ED50 (HSV-2 MS): weak | IC50 (Wild-type HSV-1 (F); [6]): 500 nM | SI Wild-type HSV-1 (F) (Wild-type HSV-1 (F)): 400 | in vivo lethal challenge model HSV-1 Walkie ED50 (HSV-1 Walkie): 26 mg/kg | IC50 (HSV-2 G): 1500 nM | SI human HSV-2 G (HSV-2 G): 200

Cc1nc(N(C)C(=O)Cc2ccc(-c3cc(F)ccc3F)cc2)sc1S(N)(=O)=O [Example 6]
in vivo lethal challenge model HSV-2 MS ED50 (HSV-2 MS): 0.5 mg/kg | IC50 (BHV): 30 nM | SI bovine BHV (BHV): 6660 | activity on clinical isolates [3]: active on all the clinical isolates tested to date | SI porcine PRV (PRV): 133 | IC50 (PRV): 1500 nM | IC50 ([4]; M1 + M2 (UL5 G352V)): > 125000 nM | in vivo lethal challenge model HSV-1 Walkie ED50 (HSV-1 Walkie): >0.5 mg/kg | Concentration of liberated inorganic phosphate ([5]; inhibitor 0.00128 μM, ATP 0.3 mM): 0.066 mM | Concentration of liberated inorganic phosphate ([5]; inhibitor 0.00128 μM, ATP 0.4 mM): 0.067 mM | Concentration of liberated inorganic phosphate ([5]; inhibitor 0.00128 μM, ATP 0.6 mM): 0.085 mM | Concentration of liberated inorganic phosphate ([5]; inhibitor 0.00128 μM, ATP 0.8 mM): 0.099 mM | Concentration of liberated inorganic phosphate ([5]; inhibitor 0.00128 μM, ATP 1 mM): 0.108 mM | Concentration of liberated inorganic phosphate ([5]; inhibitor 0.00128 μM, ATP 3 mM): 0.127 mM | Concentration of liberated inorganic phosphate ([5]; inhibitor 0.0064 μM, ATP 0.3 mM): 0.040 mM | Concentration of liberated inorganic phosphate ([5]; inhibitor 0.0064 μM, ATP 0.4 mM): 0.045 mM | Concentration of liberated inorganic phosphate ([5]; inhibitor 0.0064 μM, ATP 0.6 mM): 0.062 mM | Concentration of liberated inorganic phosphate ([5]; inhibitor 0.0064 μM, ATP 0.8 mM): 0.064 mM | Concentration of liberated inorganic phosphate ([5]; inhibitor 0.0064 μM, ATP 1 mM): 0.071 mM | Concentration of liberated inorganic phosphate ([5]; inhibitor 0.0064 μM, ATP 3 mM): 0.113 mM | Concentration of liberated inorganic phosphate ([5]; inhibitor 0.032 μM, ATP 0.3 mM): 0.025 mM | Concentration of liberated inorganic phosphate ([5]; inhibitor 0.032 μM, ATP 0.4 mM): 0.029 mM | Concentration of liberated inorganic phosphate ([5]; inhibitor 0.032 μM, ATP 0.6 mM): 0.037 mM | Concentration of liberated inorganic phosphate ([5]; inhibitor 0.032 μM, ATP 0.8 mM): 0.044 mM | Concentration of liberated inorganic phosphate ([5]; inhibitor 0.032 μM, ATP 1 mM): 0.055 mM | Concentration of liberated inorganic phosphate ([5]; inhibitor 0.032 μM, ATP 3 mM): 0.085 mM | Concentration of liberated inorganic phosphate ([5]; inhibitor 0.16 μM, ATP 0.3 mM): 0.017 mM | Concentration of liberated inorganic phosphate ([5]; inhibitor 0.16 μM, ATP 0.4 mM): 0.022 mM | Concentration of liberated inorganic phosphate ([5]; inhibitor 0.16 μM, ATP 0.6 mM): 0.029 mM | Concentration of liberated inorganic phosphate ([5]; inhibitor 0.16 μM, ATP 0.8 mM): 0.033 mM | Concentration of liberated inorganic phosphate ([5]; inhibitor 0.16 μM, ATP 1 mM): 0.040 mM | Concentration of liberated inorganic phosphate ([5]; inhibitor 0.16 μM, ATP 3 mM): 0.066 mM | Concentration of liberated inorganic phosphate ([5]; inhibitor 0.8 μM, ATP 0.3 mM): 0.010 mM | Concentration of liberated inorganic phosphate ([5]; inhibitor 0.8 μM, ATP 0.4 mM): 0.013 mM | Concentration of liberated inorganic phosphate ([5]; inhibitor 0.8 μM, ATP 0.6 mM): 0.019 mM | Concentration of liberated inorganic phosphate ([5]; inhibitor 0.8 μM, ATP 0.8 mM): 0.023 mM | Concentration of liberated inorganic phosphate ([5]; inhibitor 0.8 μM, ATP 1 mM): 0.027 mM | Concentration of liberated inorganic phosphate ([5]; inhibitor 0.8 μM, ATP 3 mM): 0.054 mM | Concentration of liberated inorganic phosphate ([5]; inhibitor 4 μM, ATP 0.3 mM): 0.006 mM | Concentration of liberated inorganic phosphate ([5]; inhibitor 4 μM, ATP 0.4 mM): 0.007 mM | Concentration of liberated inorganic phosphate ([5]; inhibitor 4 μM, ATP 0.6 mM): 0.010 mM | Concentration of liberated inorganic phosphate ([5]; inhibitor 4 μM, ATP 0.8 mM): 0.012 mM | Concentration of liberated inorganic phosphate ([5]; inhibitor 4 μM, ATP 1 mM): 0.018 mM | Concentration of liberated inorganic phosphate ([5]; inhibitor 4 μM, ATP 3 mM): 0.044 mM | Concentration of liberated inorganic phosphate ([5]; inhibitor 20 μM, ATP 0.3 mM): 0.004 mM | Concentration of liberated inorganic phosphate ([5]; inhibitor 20 μM, ATP 0.4 mM): 0.004 mM | Concentration of liberated inorganic phosphate ([5]; inhibitor 20 μM, ATP 0.6 mM): 0.006 mM | Concentration of liberated inorganic phosphate ([5]; inhibitor 20 μM, ATP 0.8 mM): 0.010 mM | Concentration of liberated inorganic phosphate ([5]; inhibitor 20 μM, ATP 1 mM): 0.008 mM | Concentration of liberated inorganic phosphate ([5]; inhibitor 20 μM, ATP 3 mM): 0.030 mM | Concentration of liberated inorganic phosphate ([5]; inhibitor 100 μM, ATP 0.3 mM): 0.005 mM | Concentration of liberated inorganic phosphate ([5]; inhibitor 100 μM, ATP 0.4 mM): 0.006 mM | Concentration of liberated inorganic phosphate ([5]; inhibitor 100 μM, ATP 0.6 mM): 0.008 mM | Concentration of liberated inorganic phosphate ([5]; inhibitor 100 μM, ATP 0.8 mM): 0.008 mM | Concentration of liberated inorganic phosphate ([5]; inhibitor 100 μM, ATP 1 mM): 0.014 mM | Concentration of liberated inorganic phosphate ([5]; inhibitor 100 μM, ATP 3 mM): 0.032 mM | Ki ([5]; read-out: in vitro ATPase inhibition wild-type HSV-1 (F) Ki, nonlinear curve regression): 7 nM | type of ATPase inhibition (mechanism) [5]: un-

CC(C)[C@H](N)C(=O)OCCOCn1cnc2c(=O)[nH]c(N)nc21 [Valtrex, reference compound]
ED50 (HSV-2 MS): 14 mg/kg | ED50 (HSV-1 Walkie): 17 mg/kg

CNS(=O)(=O)c1sc(N(C)C(=O)Cc2ccc(-c3ccccc3)cc2)nc1C [Example 4]
in vivo lethal challenge model HSV-2 MS ED50 (HSV-2 MS): 3 mg/kg | IC50 (BHV): 150 nM | SI bovine BHV (BHV): 400 | IC50 (Wild-type HSV-1 (F); [6]): 0.5 nM | SI Wild-type HSV-1 (F) (Wild-type HSV-1 (F)): 1E+05 | activity on clinical isolates [3]: active on all the clinical isolates tested to date | SI porcine PRV (PRV): 66 | IC50 (PRV): 3000 nM | IC50 ([4]; Mutant 2 (UL5 K356N)): > 250000 nM | IC50 ([4]; Mutant 6 (UL52 A897T)): > 1000 nM | in vivo lethal challenge model HSV-1 Walkie ED50 (HSV-1 Walkie): 1 mg/kg | IC50 (HSV-2 G): 50 nM | SI human HSV-2 G (HSV-2 G): 5000

Cc1nc(N(C)C(=O)Nc2ccc(N3CCOCC3)cc2)sc1S(=O)(=O)N(C)C [Example 1]
in vivo lethal challenge model HSV-2 MS ED50 (HSV-2 MS): weak | IC50 (BHV): 1500 nM | SI bovine BHV (BHV): >167 | IC50 ([1]; in vitro viral replication assay, read-out: IC50 Acyclovir-resistant HSV-1 (F) mutants): 750 nM | IC50 (Wild-type HSV-1 (F); [6]): 750 nM | SI Wild-type HSV-1 (F) (Wild-type HSV-1 (F)): 350 | activity on clinical isolates [3]: active on all the clinical isolates tested to date | SI porcine PRV (PRV): >63 | IC50 (PRV): 4000 nM | IC50 ([4]; Mutant 1 (UL5 M355V, UL5 V6621, UL52 A897T)): > 250000 nM | in vivo lethal challenge model HSV-1 Walkie ED50 (HSV-1 Walkie): 60 mg/kg | IC50 (HSV-2 G): 1500 nM | SI human HSV-2 G (HSV-2 G): 167

Cc1nc(N(C)C(=O)Cc2ccc(-c3ccccn3)cc2)sc1S(N)(=O)=O [Example 7]
ED50 (HSV-2 MS): ~0.5 mg/kg | IC50 (BHV; Bos taurus): 125 nM | SI bovine BHV (BHV): 240 | IC50 (Wild-type HSV-1 (F); Human alphaherpesvirus 1, read-out: IC50 Wild-type HSV-1 (F)): 20 nM | SI Wild-type HSV-1 (F) (Wild-type HSV-1 (F)): 2500 | activity on clinical isolates [3]: active on all the clinical isolates tested to date | SI porcine PRV (PRV): >50 | IC50 (PRV; Sus scrofa): 5000 nM | ED50 (HSV-1 Walkie): 0.5 mg/kg | Ki [5]: 30 nM | type of ATPase inhibition (mechanism) [5]: uncom- | IC50 (HSV-2 G; Human alphaherpesvirus 2): 20 nM | SI human HSV-2 G (HSV-2 G): 3000

CNS(=O)(=O)c1sc(N(C)C(=O)Nc2ccc(-c3ccccc3)cc2)nc1C [Example 3]
in vivo lethal challenge model HSV-2 MS ED50 (HSV-2 MS): 11 mg/kg | IC50 (Wild-type HSV-1 (F); [6]): 1 nM | SI Wild-type HSV-1 (F) (Wild-type HSV-1 (F)): 3E+05 | IC50 ([4]; mutant not named): > 250000 nM | in vivo lethal challenge model HSV-1 Walkie ED50 (HSV-1 Walkie): 8 mg/kg | IC50 (HSV-2 G): 5 nM | SI human HSV-2 G (HSV-2 G): 25000
